The values below come from US10653680B2, “Treatment of impulsivity-related disorders” (OXFORD UNIVERSITY INNOVATION LIMITED, priority 2016, dated 2020).

For data set [1], the system named is rats. Put plainly: 5-CSRTT, stimulant (cocaine)-induced responding. In kind it is in vivo, rats (males; Long Evans). As to the method: (§1) Testing was carried out in Vancouver (Canada) using rats (males; Long Evans from Charles River) which were given at least two weeks to acclimatise to the animal facility. They were housed in pairs on a 12 hour reverse light-dark cycle (lights off at 7 am). In the second week of acclimatisation, rats were handled briefly each day. […] For each task, there was then a habituation session to the operant boxes before training began.
(§2) Ebselen, cocaine and 2,5-dimethoxy-4-iodoamphetamine (DOI) were obtained from Sigma Aldrich, and MDL 100,907 was obtained from Tocris. Ebselen was dissolved in 0.5M DMSO and made up to injection volume (8 ml/kg) using 4% cyclodextrin. Cocaine and DOI were dissolved in 0.9% saline. MDL 100,907 was dissolved in 0.9% saline and the pH was adjusted to 6.25 using 1M NaOH and 0.1M HCl.
(§3) All data for the cognitive tasks are presented as mean+SEM change from baseline: • performance on drug day−performance on the previous day
In experiments investigating the effect of ebselen on cocaine and DOI, data were analysed with a two-way ANOVA with ebselen and cocaine/DOI as between-subject factors. If an interaction was detected, this was further investigated using simple main effects analysis. All analyses were conducted using SPSS 22 with p<0.05 considered significant.
To assess the effect of ebselen on stimulant-induced responding, ebselen (10 mg/kg) or vehicle was administered 1 hour prior to cocaine (15 mg/kg i.p.), which in turn was administered 10 minutes prior to testing. Treatments were administered using according to a Latin square design. The inter-trial interval for these sessions was 5 seconds. Two rats were excluded from the data due to increasing levels of omissions across all days of this portion of the study. The experiment was repeated using 0.03 mg/kg MDL 100,907 instead of ebselen.

Data set [2] relates to humans. The conditions noted are these: at pharmaceutically effective dosages; clinical trials for ischemic stroke (Yamaguchi et al); cited from earlier work.
Data set [3] concerns rats. Put plainly: 5 Choice Serial Reaction Time Task (5-CSRTT). In kind it is in vivo, rats (males; Long Evans). As to the method: as §1, §2, §3
The data were analysed with repeated measures ANOVA with dose as a within-subject factor. Where appropriate, post-hoc analysis was performed using Student's paired t-test.
This test was performed as described previously (Bari et al., Nature Protocols, 2008, 3(5), 759-767; Robbins, Psychopharmacology, 2002, 163(3), 362-380).
Fourteen rats were trained to respond to brief visual cues presented in one of five target areas with an inter-trial interval of 5 seconds. On the day of testing in the presence of ebselen, the inter-trial interval was lengthened to 7 seconds to cause a reliable increase in premature responding.
Ebselen and vehicle were administered by intraperitoneal (i.p.) injection 1 hour prior to testing. Three doses of ebselen (2, 5 or 10 mg/kg) were studied, administration being in a random order that was determined by a Latin square design. Rats were run five days a week, with the treatment day falling on day three.
Following ebselen, 3 doses of MDL 100,907 (0.01, 0.03 and 0.1 mg/kg, i.p.) were tested in a Latin square design with the first injection occurring one week after the final injection of ebselen. MDL 100,907 is a selective 5-HT2A antagonist. Rats were similarly run five days a week with injections falling on the third day, and the lengthened inter-trial interval was used only on the drug-administration day.
The Latin square design (for both the 5-CSRTT and rGT experiments) was counterbalanced, based on performance in the last training day of each task. A one week wash-out period was given between drug-administration days. A baseline session was performed both the day before and the day after treatment to ensure stable off-drug performance.

Data set [4] concerns healthy participants. Put plainly: Human study: subjective ratings (PANAS mood, side effect profile, LSEQ sleep, guess of treatment arm). In kind it is in vivo. The text has this: Twenty healthy participants (7 females, 13 males; mean age 25.1 years, range 20-38 years; mean BMI 22.7 kg/m^2, range 18.7-30.0 kg/m^2) were included in the study after giving full informed written consent.
Exclusion criteria included a history of any DSM-5 Axis I psychiatric disorder (determined using the […] for Diagnostic and Statistical Manual for Mental Health Disorders), significant current medical condition, current regular medication (apart from the contraceptive pill), pregnancy or lactation, heavy smoking (defined as more than 5 cigarettes per day) and having taken part in another study involving an investigational drug within the previous 3 months. Participants were asked to maintain stable exercise and diet as well as refrain from alcohol during study participation.
Ebselen capsules and identical matching placebo (containing microcrystalline cellulose) were purchased from Shasun Pharmaceuticals Ltd. Participants were tested twice (seven days apart) receiving on one occasion ebselen and, on the other, placebo in a randomised, double-blind, cross-over design. Ebselen was administered in 6×200 mg capsules in three doses given over two days. The order of receiving either the ebselen or the placebo was randomised.
On the day before cognitive testing, participants took the first dose at 1 pm and the second dose at 10 pm. The final dose was taken around 3 hrs prior to cognitive testing. Participants were sent text message reminders a few minutes before they were due to take medication, and were asked to confirm receipt of the messages. The cognitive tasks were carried out immediately after a magnetic resonance spectroscopy study.
On the screening visit, participants were assessed for baseline depression and anxiety symptoms with the Beck Depression Inventory (Beck et al.; Arch. Gen. Psychiatry; 1961, 4: 561-571) and the state measure of the State-Trait Anxiety Inventory (STAI) (Spielberger et al.; Manual for the State-Trait Anxiety Inventory, Consulting Psychologists Press, Palo Alto Calif., 1983), and for personality with the Eysenck Personality Questionnaire (Eysenck and Eysenck, Manual of the Eysenck Personality Questionnaire, London: Hodder & Stoughton, 1975). On the morning preceding psychological testing, the Leeds Sleep Evaluation Questionnaire (LSEQ) was completed within 30 minutes of waking (Parrot and Hindmarch, Psychopharmacology, 1980, 71, 173-179).
Before cognitive testing, participants were asked to rate their mood using the Positive and Negative Affective Schedule (PANAS) (Watson et al.; J. Pers. Soc. Psychol., 1988, 54, 1063-1070), to complete a side effect profile using a 4-point rating scale and also to guess as to whether they had received ebselen or placebo on that randomization arm. […]

Turning to `O=c1c2ccccc2[se]n1-c1ccccc1` [Ebselen, 2-phenyl-1,2-benzisoselenazol-3(2H)-one], in data set [1] (ebselen 10 mg/kg / cocaine 15 mg/kg experiment), the any other measure entry is given as “No effects”. Further, in data set [1] (ebselen 10 mg/kg before cocaine 15 mg/kg, p=0.463), the “reversal of the cocaine effect on omissions” value was “not reversed”. The “reversal of the cocaine effect on accuracy” value in data set [1] (ebselen 10 mg/kg before cocaine 15 mg/kg, p=0.969, interaction p=0.278) is recorded as “not reversed”. Also, the cocaine-induced premature responses result in data set [1] (ebselen 10 mg/kg i.p. 1 hour prior to cocaine 15 mg/kg i.p., p=0.023) was “reduced cocaine-induced premature responses”. Besides, the “number of premature responses, ebselen/cocaine vs vehicle/vehicle treatment” value in data set [1] (ebselen 10 mg/kg, cocaine 15 mg/kg i.p., p=0.909) is “did not differ”. In addition, the toxicity in humans entry in data set [2] is on record as “sufficiently non-toxic”. For the same compound, the premature responding entry in data set [3] (ebselen 2 mg/kg i.p. vs vehicle, p=0.158) is “No effect”; in data set [3] (ebselen 5 mg/kg i.p. vs vehicle, p=0.011), “statistically significant decreases”; in data set [3] (ebselen 10 mg/kg i.p. vs vehicle, p=0.032), “statistically significant decreases”; in data set [3] (ebselen 2, 5, 10 mg/kg i.p. 1 hour prior to testing, vs vehicle, ANOVA p=0.049, inter-trial interval 7 s), “decreased premature responding in a dose-dependent manner”. Moreover, the “any other measures of the 5-CSRTT” value in data set [3] (ebselen 2, 5, 10 mg/kg i.p., p=0.192-0.805) is on record as “No effects”. Moreover, the tolerability entry in data set [4] (20 healthy participants, 6x200 mg in three doses over two days, no participants dropped out) was “well tolerated”. Further, the “frequency of other side effects” value in data set [4] (ebselen and placebo treatment compared) was “low and comparable frequency of side effects”. The “subjective measures of sleep (LSEQ)” value in data set [4] (ebselen vs placebo) is reported as “no significant differences”. In addition, the “participants who reported feeling drowsy” value in data set [4] (of 20 participants on ebselen treatment, none on placebo) is “Five”.
